Measurements from patent US12459922B2 (Gilead Sciences, Inc., priority 2022, dated 2025).

These molecules were tested on endogenous cellular STAT1 (phosphorylated at Tyr701) in NCI-H1373 cells (assay: Phospho-STAT1 (Tyr701) LANCE Ultra TR-FRET Detection Assay). Conditions: Homo sapiens, NCI-H1373, 48 h, phospho-STAT1 (Tyr701) induction, read-out: NH1373 pSTAT1 EC50.
Type: cell-based

Structure (SMILES)	EC50 [nM]
O=c1[nH]ncc(N[C@H](CCCn2cnc3cc(-c4nc5ccccn5n4)c(F)cc3c2=O)COC(F)F)c1C(F)(F)F [Example 490, (R)-7-([1,2,4]triazolo[1,5-a]pyridin-2-yl)-3-(5-(difluoromethoxy)-4-((6-oxo-5-(trifluoromethyl)-1,6-dihydropyridazin-4-yl)amino)pentyl)-6-fluoroquinazolin-4(3H)-one]	1
O=c1[nH]ncc(N2C[C@@H](O)C[C@H]2CCCn2ccc3cc(-c4ncc(C(F)(F)F)cn4)c(F)cc3c2=O)c1C(F)(F)F [Example 138, 7-fluoro-2-(3-((2R,4S)-4-hydroxy-1-(6-oxo-5-(trifluoromethyl)-1,6-dihydropyridazin-4-yl)pyrrolidin-2-yl)propyl)-6-(5-(trifluoromethyl)pyrimidin-2-yl)isoquinolin-1(2H)-one]	55.5
O=c1[nH]ncc(N[C@H]2CCC[C@@H](Cn3cnc4cc(-c5ncc(C(F)(F)F)c(Br)n5)c(F)cc4c3=O)C2)c1C(F)(F)F [Example 458, 7-(4-bromo-5-(trifluoromethyl)pyrimidin-2-yl)-6-fluoro-3-(((1R,3S)-3-((6-oxo-5-(trifluoromethyl)-1,6-dihydropyridazin-4-yl)amino)cyclohexyl)methyl)quinazolin-4(3H)-one]	2940
O=c1[nH]ncc(N[C@H](CCCn2ccc3cc(-c4cnc(N5CCOCC5)cn4)c(F)cc3c2=O)COC(F)F)c1C(F)(F)F [Example 422, (R)-2-(5-(difluoromethoxy)-4-((6-oxo-5-(trifluoromethyl)-1,6-dihydropyridazin-4-yl)amino)pentyl)-7-fluoro-6-(5-morpholinopyrazin-2-yl)isoquinolin-1(2H)-one]	87.9
O=c1[nH]ncc(N[C@H](CCCn2cnc3cc(-c4ncc(Cl)cn4)c(F)cc3c2=O)C2CC2)c1C(F)(F)F [Example 470, 7-(5-chloropyrimidin-2-yl)-3-[(4R)-4-cyclopropyl-4-[[6-oxo-5-(trifluoromethyl)-1H-pyridazin-4-yl]amino]butyl]-6-fluoro-quinazolin-4-one]	39.3
O=c1[nH]ncc(N[C@H]2CCC[C@@H](Cn3ccc4cc(-c5ncc(Cl)cn5)c(F)c(F)c4c3=O)C2)c1C(F)(F)F [Example 246, 6-(5-chloropyrimidin-2-yl)-7,8-difluoro-2-(((1R,3S)-3-((6-oxo-5-(trifluoromethyl)-1,6-dihydropyridazin-4-yl)amino)cyclohexyl)methyl)isoquinolin-1(2H)-one]	3.78
C[C@@H](CCCn1ccc2cc(-c3cnc(C(F)F)cn3)c(F)cc2c1=O)Nc1cn[nH]c(=O)c1C(F)(F)F [Example 329, (S)-6-(5-(difluoromethyl)pyrazin-2-yl)-7-fluoro-2-(4-((6-oxo-5-(trifluoromethyl)-1,6-dihydropyridazin-4-yl)amino)pentyl)isoquinolin-1(2H)-one]	97.7
CC[C@@H](CCCn1ccc2cc(-c3ncc(OC(F)F)c(N)n3)c(F)cc2c1=O)Nc1cn[nH]c(=O)c1C(F)(F)F [Example 360, (S)-6-(4-amino-5-(difluoromethoxy)pyrimidin-2-yl)-7-fluoro-2-(4-((6-oxo-5-(trifluoromethyl)-1,6-dihydropyridazin-4-yl)amino)hexyl)isoquinolin-1(2H)-one]	12.7
O=c1[nH]ncc(N[C@H]2CCC[C@@H](Cn3ccc4cc(-c5cnc(C(F)(F)F)cn5)c(F)cc4c3=O)C2)c1C(F)(F)F [Example 256, 7-fluoro-2-(((1R,3S)-3-((6-oxo-5-(trifluoromethyl)-1,6-dihydropyridazin-4-yl)amino)cyclohexyl)methyl)-6-(5-(trifluoromethyl)pyrazin-2-yl)isoquinolin-1(2H)-one]	30.2
O=c1[nH]ncc(N[C@H]2CCC[C@@H]2CCn2ccc3cc(-c4ncc(C(F)(F)F)cn4)c(F)cc3c2=O)c1C(F)(F)F [Example 179, 7-fluoro-2-(2-((1R,2S)-2-((6-oxo-5-(trifluoromethyl)-1,6-dihydropyridazin-4-yl)amino)cyclopentyl)ethyl)-6-(5-(trifluoromethyl)pyrimidin-2-yl)isoquinolin-1(2H)-one]	4.03
O=c1[nH]ncc(N[C@H]2CCC[C@@H](Cn3ccc4cc(-c5ncc(C(F)(F)F)cn5)cc(F)c4c3=O)C2)c1C(F)(F)F [Example 285, 8-fluoro-2-(((1R,3S)-3-((6-oxo-5-(trifluoromethyl)-1,6-dihydropyridazin-4-yl)amino)cyclohexyl)methyl)-6-(5-(trifluoromethyl)pyrimidin-2-yl)isoquinolin-1(2H)-one]	78.7
O=c1[nH]ncc(N[C@H]2CCC[C@@H](Cn3ccc4cc(-c5ccc(C(F)(F)F)cn5)c(F)cc4c3=O)C2)c1C(F)(F)F [Example 268, 7-fluoro-2-(((1R,3S)-3-((6-oxo-5-(trifluoromethyl)-1,6-dihydropyridazin-4-yl)amino)cyclohexyl)methyl)-6-(5-(trifluoromethyl)pyridin-2-yl)isoquinolin-1(2H)-one]	13
O=c1[nH]ncc(N[C@H]2CCN[C@@H]2CCn2ccc3cc(-c4ncc(C(F)(F)F)cn4)c(F)cc3c2=O)c1C(F)(F)F [Example 440, 7-fluoro-2-(2-((2R,3S)-3-((6-oxo-5-(trifluoromethyl)-1,6-dihydropyridazin-4-yl)amino)pyrrolidin-2-yl)ethyl)-6-(5-(trifluoromethyl)pyrimidin-2-yl)isoquinolin-1(2H)-one]	1750
C[C@@H](CCCn1ccc2cc(-c3nc4cc(F)ccn4n3)c(F)cc2c1=O)Nc1cn[nH]c(=O)c1C(F)(F)F [Example 335, (S)-7-fluoro-6-(7-fluoro-[1,2,4]triazolo[1,5-a]pyridin-2-yl)-2-(4-((6-oxo-5-(trifluoromethyl)-1,6-dihydropyridazin-4-yl)amino)pentyl)isoquinolin-1(2H)-one]	5.57
Nc1nc(-c2cc3ccn(CCC[C@@H]4CC5(CC5)CN4c4cn[nH]c(=O)c4C(F)(F)F)c(=O)c3cc2F)ncc1C(F)F [Example 143, 6-[4-amino-5-(difluoromethyl)pyrimidin-2-yl]-7-fluoro-2-[3-[(6R)-5-[6-oxo-5-(trifluoromethyl)-1H-pyridazin-4-yl]-5-azaspiro[2.4]heptan-6-yl]propyl]isoquinolin-1-one]	26.5
O=c1[nH]ncc(N[C@H](CCCn2ccc3cc(-c4ncc(C(F)(F)F)s4)c(F)cc3c2=O)COC(F)F)c1C(F)(F)F [Example 396, (R)-2-(5-(difluoromethoxy)-4-((6-oxo-5-(trifluoromethyl)-1,6-dihydropyridazin-4-yl)amino)pentyl)-7-fluoro-6-(5-(trifluoromethyl)thiazol-2-yl)isoquinolin-1(2H)-one]	48.8
C[C@@H](CCCn1ccc2cc(-c3nccc(C(F)F)n3)c(F)cc2c1=O)Nc1cn[nH]c(=O)c1C(F)(F)F [Example 197, (S)-6-(4-(difluoromethyl)pyrimidin-2-yl)-7-fluoro-2-(4-((6-oxo-5-(trifluoromethyl)-1,6-dihydropyridazin-4-yl)amino)pentyl)isoquinolin-1(2H)-one]	638
CN(C)C[C@@H](CCCn1ccc2cc(-c3ncc(C(F)(F)F)cn3)c(F)cc2c1=O)Nc1cn[nH]c(=O)c1C(F)(F)F [Example 473, 2-[(4R)-5-(dimethylamino)-4-[[6-oxo-5-(trifluoromethyl)-1H-pyridazin-4-yl]amino]pentyl]-7-fluoro-6-[5-(trifluoromethyl)pyrimidin-2-yl]isoquinolin-1-one]	969
